Measured values: US12338243B2, “P2X7 modulators” (JANSSEN PHARMACEUTICA NV, priority 2014, dated 2025)

Experiments:
P2X7 [1] = target: T1, P2X7 (Homo sapiens, UniProt Q99572); assay: Ca2+ flux (FLIPR) in 1321N1 cells expressing recombinant human P2X7 channel; format: cell-based; parameters: expressed in transfected cells; host or cells: 1321N1 cells; conditions: 250 μM BzATP
T1 sequence (Q99572 1-595): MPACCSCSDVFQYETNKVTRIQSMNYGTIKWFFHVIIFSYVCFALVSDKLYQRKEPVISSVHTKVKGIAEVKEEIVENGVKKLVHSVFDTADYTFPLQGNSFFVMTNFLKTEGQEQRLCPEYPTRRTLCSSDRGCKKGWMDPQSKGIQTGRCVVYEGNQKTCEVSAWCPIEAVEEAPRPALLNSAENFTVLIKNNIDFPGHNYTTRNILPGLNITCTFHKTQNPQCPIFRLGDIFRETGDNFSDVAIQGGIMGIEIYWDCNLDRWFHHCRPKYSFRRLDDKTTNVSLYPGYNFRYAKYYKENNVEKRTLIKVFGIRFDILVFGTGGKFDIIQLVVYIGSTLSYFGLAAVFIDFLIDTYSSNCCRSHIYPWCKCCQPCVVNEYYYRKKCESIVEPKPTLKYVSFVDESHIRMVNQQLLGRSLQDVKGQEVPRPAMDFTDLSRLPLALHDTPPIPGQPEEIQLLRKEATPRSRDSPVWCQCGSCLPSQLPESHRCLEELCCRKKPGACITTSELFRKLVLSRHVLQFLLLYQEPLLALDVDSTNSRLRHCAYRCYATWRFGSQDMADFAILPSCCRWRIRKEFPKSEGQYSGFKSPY
Procedure, shortened: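 1321N1 cells expressing recombinant human P2X7, loaded 60 min with Calcium-4 dye in HEPES buffer pH 7.40 (1 mM CaCl2, 1 mM MgCl2), preincubated 30 min with compounds. Fluorescence change recorded 180 seconds after agonist addition.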

rat P2X7 [2] = target: T2, rat P2X7 (Rattus norvegicus, UniProt Q64663); assay: Radioligand binding, rat P2X7-1321N1 cell membranes, tritiated A-804598
T2 sequence (Q64663 1-595): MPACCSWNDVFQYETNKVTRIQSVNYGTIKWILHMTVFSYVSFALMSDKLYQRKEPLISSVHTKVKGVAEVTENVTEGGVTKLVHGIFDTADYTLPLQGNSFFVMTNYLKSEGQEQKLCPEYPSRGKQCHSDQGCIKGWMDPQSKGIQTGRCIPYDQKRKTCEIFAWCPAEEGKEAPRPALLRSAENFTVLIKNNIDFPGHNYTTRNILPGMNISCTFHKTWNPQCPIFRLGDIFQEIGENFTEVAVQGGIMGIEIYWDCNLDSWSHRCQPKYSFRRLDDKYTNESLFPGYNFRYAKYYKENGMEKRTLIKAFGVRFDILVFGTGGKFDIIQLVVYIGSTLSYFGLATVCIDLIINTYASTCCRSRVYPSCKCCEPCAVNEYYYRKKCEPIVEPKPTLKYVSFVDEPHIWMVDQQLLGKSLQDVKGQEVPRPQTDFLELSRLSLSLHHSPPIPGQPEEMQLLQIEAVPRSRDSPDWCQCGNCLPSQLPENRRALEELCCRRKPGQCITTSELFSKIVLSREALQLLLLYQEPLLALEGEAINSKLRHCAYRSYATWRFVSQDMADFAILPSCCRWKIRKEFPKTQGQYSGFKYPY
Description: (§3) P2X7 Antagonism in Recombinant Human P2X7 Cells or Recombinant Rat P2X7 Cells: (a) Ca^2+ Flux and (b) Radioligand Binding

P2X7 [3] = target: T1, P2X7; assay: Radioligand binding, human P2X7-1321N1 cell membranes, tritiated A-804598
Description: as §3

rat P2X7 [4] = target: T2, rat P2X7; assay: Ca2+ flux (FLIPR) in 1321N1 cells expressing recombinant rat P2X7 channel; conditions: FLIPR (rat) IC50 (μM), 250 μM BzATP
P2X7 [5] = target: T1, P2X7; assay: P2X7 antagonism in human whole blood (IL-1β release, ELISA); format: cell-based; parameters: PBMCs were isolated from blood using a Ficoll density gradient technique; endogenous in cells; host or cells: human PBMCs / human whole blood from donors; conditions: LPS 30 ng/ml + 1 mM Bz-ATP
Description: (§1) P2X7 Antagonism in Human Peripheral Blood Mononuclear Cells (PBMCs) and Human Whole Blood.
(§2) Human blood was collected using a blood donor program. PBMCs were isolated from blood using a Ficoll density gradient technique. Briefly, blood was laid on Ficoll solution and centrifuged at RT for 20 minutes at 2000 rpm. The buffy layer (between red blood cells and plasma) was carefully collected by aspiration, washed with PBS and centrifuged again at 1500 rpm for 15 minutes. The resulting cell pellet was washed and plated on 96 well-plates for experiments. For the Human Whole Blood experiments, 150 μl of human blood was platted on 96 well-plates. Lipopolysaccharide (LPS) (30 ng/ml) was added to each well and incubated for 1 hour. Test compounds were then added and incubated for 30 minutes. The P2X7 agonist, 2′(3′)-O-(4-benzoylbenzoyl) adenosine 5′ triphosphate (Bz-ATP) was then added at a final concentration of 0.5 mM (PBMC) or 1 mM (blood). Cells were incubated for an additional 1.5 hours. At that point, supernatant was collected and stored for IL-1β assay using manufacturer's protocol for enzyme-linked immunosorbent assay (ELISA). Data was expressed as percent control, where control is defined as the difference in IL-1β release in LPS+Bz-ATP samples and LPS only samples. Data was plotted as response (% control) versus concentration to generate IC50 values. […] Data are analyzed and graphed on Graphpad Prism 5. For analysis, each concentration point is averaged from triplicate values and the averaged values are plotted on Graphpad Prism. The IC50 for each compound is then uploaded into 3DX.

P2X7 [6] = target: T1, P2X7; assay: P2X7 antagonism in human PBMCs (IL-1β release, ELISA); format: cell-based; parameters: PBMCs were isolated from blood using a Ficoll density gradient technique; endogenous in cells; host or cells: human PBMCs / human whole blood from donors; conditions: LPS 30 ng/ml + 0.5 mM Bz-ATP, compound 10 μM
Description: as §1, §2

IC50 (P2X7 [1]) | Ki (rat P2X7 [2]) | Ki (P2X7 [3]) | IC50 (rat P2X7 [4]) | IC50 (P2X7 [5]) | PBMC 10 μM (% control) (P2X7 [6]) | SMILES
2 nM | 39.8 nM | 15.8 nM | 0.0628 µM | 79 nM | – | Cc1nnc2n1CCN(C(=O)c1cccc(C(F)(F)F)c1Cl)C2c1ccccc1 (racemic) [Example 53, (2-chloro-3-(trifluoromethyl)phenyl)(3-methyl-8-phenyl-5,6-dihydro-[1,2,4]triazolo[4,3-a]pyrazin-7(8H)-yl)methanone]
9.7 nM | – | 31.6 nM | 0.211 µM | – | 8.9 % control | O=C(c1ccc(F)c(C(F)(F)F)c1Cl)N1CCn2c(nnc2C(F)(F)F)C1c1ccccc1 (single isomer, unassigned) [Example 95, (R*)-(2-chloro-4-fluoro-3-(trifluoromethyl)phenyl)(8-phenyl-3-(trifluoromethyl)-5,6-dihydro-[1,2,4]triazolo[4,3-a]pyrazin-7(8H)-yl)methanone]
4890 nM | – | – | > 10 µM | – | 43.6 % control | O=C(c1ccc(F)c(C(F)(F)F)c1Cl)N1CCn2c(nnc2C(F)(F)F)C1c1ccccc1 (single isomer, unassigned) [Example 96, (S*)-(2-chloro-4-fluoro-3-(trifluoromethyl)phenyl)(8-phenyl-3-(trifluoromethyl)-5,6-dihydro-[1,2,4]triazolo[4,3-a]pyrazin-7(8H)-yl)methanone]
9.1 nM | 6.3 nM | 17.4 nM | 0.0348 µM | – | 4.9 % control | O=C(c1ccnc(C(F)(F)F)c1Cl)N1CCn2c(nnc2C(F)(F)F)C1c1ccccc1 (single isomer, unassigned) [Example 99, (R*)-(3-chloro-2-(trifluoromethyl)pyridin-4-yl)(8-phenyl-3-(trifluoromethyl)-5,6-dihydro-[1,2,4]triazolo[4,3-a]pyrazin-7(8H)-yl)methanone]
– | – | – | – | – | 102.0 % control | O=C(c1ccnc(C(F)(F)F)c1Cl)N1CCn2c(nnc2C(F)(F)F)C1c1ccccc1 (single isomer, unassigned) [Example 100, (S*)-(3-chloro-2-(trifluoromethyl)pyridin-4-yl)(8-phenyl-3-(trifluoromethyl)-5,6-dihydro-[1,2,4]triazolo[4,3-a]pyrazin-7(8H)-yl)methanone]
6.8 nM | – | 21.9 nM | 0.0047 µM | 25 nM | – | C[C@H]1Cn2c(nnc2-c2ccco2)CN1C(=O)c1cccc(C(F)(F)F)c1Cl [Example 24, (S)-(2-chloro-3-(trifluoromethyl)phenyl)(3-(furan-2-yl)-6-methyl-5,6-dihydro-[1,2,4]triazolo[4,3-a]pyrazin-7(8H)-yl)methanone]
83.8 nM | – | 50.1 nM | 0.927 µM | 1590 nM | – | C[C@H]1Cn2c(nnc2-c2cc(F)c(F)c(F)c2)CN1C(=O)c1cccc(C(F)(F)F)c1Cl [Example 30, (S)-(2-chloro-3-(trifluoromethyl)phenyl)(6-methyl-3-(3,4,5-trifluorophenyl)-5,6-dihydro-[1,2,4]triazolo[4,3-a]pyrazin-7(8H)-yl)methanone]
